Data reported in ChEMBL document CHEMBL1143762, “CP5484, a novel quaternary carbapenem with potent anti-MRSA activity and reduced toxicity” (Bioorg Med Chem, 2007).
Values after ≈ are worked out from the molar mass of the structure shown.

Tests used:
Mus musculus = experiment: Acute toxicity in iv dosed ICR mouse assessed as mortality after 24 hrs; type: organism-based; conditions: in vivo
Staphylococcus aureus [1] = experiment: Antibacterial activity against carbapenem-resistant Staphylococcus aureus M126 HR; type: functional
Staphylococcus aureus [2] = experiment: Antibacterial activity against Staphylococcus aureus 209P JC1; type: functional
Staphylococcus aureus [3] = experiment: Antibacterial activity against methicillin-resistant Staphylococcus aureus M126; type: functional
Staphylococcus aureus [4] = experiment: Antibacterial activity against penicillin-resistant Staphylococcus aureus PRC9; type: functional
Staphylococcus aureus [5] = experiment: Antibacterial activity against methicillin-resistant Staphylococcus aureus; type: functional
Haemophilus influenzae = experiment: Antibacterial activity against beta lactamase positive amoxicillin/clavulanic acid-resistant Haemophilus influenzae PRC44; type: functional
[6] = Urinary excretion of compound in mouse at 20 mg/kg, iv administered with 10 mg/kg cilastatin; type: ADME, organism-based; conditions: urine, read-out: Activity
[7] = Half life in mouse at 20 mg/kg, iv administered with 10 mg/kg cilastatin; type: ADME, organism-based; conditions: in vivo
Moraxella catarrhalis = experiment: Antibacterial activity against Moraxella catarrhalis W-0500; type: functional
[8] = Total clearance in mouse at 20 mg/kg, iv administered with 10 mg/kg cilastatin; type: ADME, organism-based; conditions: in vivo
Klebsiella pneumoniae = experiment: Antibacterial activity against Klebsiella pneumoniae PCI602; type: functional
Staphylococcus aureus [9] = experiment: Protective effect against methicillin-resistant Staphylococcus aureus MF126 systemic infection in ICR mouse dosed sc twice a day; type: functional
Serum [10] = experiment: Protein binding in mouse serum by equilibrium dialysis method; type: ADME, cell-free
Staphylococcus aureus [11] = experiment: Antibacterial activity against methicillin-resistant Staphylococcus aureus MF126; type: functional
Serum [12] = experiment: Protein binding in human serum by equilibrium dialysis method; type: ADME, cell-free
[13] = Volume of distribution at steady state in mouse at 20 mg/kg, iv administered with 10 mg/kg cilastatin; type: ADME, organism-based; conditions: in vivo, read-out: Vss
Escherichia coli = experiment: Antibacterial activity against Escherichia coli NIHJ JC2; type: functional
[14] = AUC (0-infinity) in mouse at 20 mg/kg, iv administered with 10 mg/kg cilastatin; type: ADME, organism-based; parameters: dose 20 mg/kg, route intravenous, time infinity; conditions: plasma
Pseudomonas aeruginosa = experiment: Antibacterial activity against Pseudomonas aeruginosa PAO1; type: functional

SMILES	MLD (Mus musculus) [mg/kg]	MIC (Staphylococcus aureus [1]) [µg/mL]	MIC (Staphylococcus aureus [2]) [µg/mL]	MIC (Staphylococcus aureus [3]) [µg/mL]	other results
CSc1c2sc(C3=C(C(=O)[O-])N4C(=O)[C@H]([C@@H](C)O)[C@H]4[C@H]3C)cn2c[n+]1CCN	500	3.13 (≈ 7.41 µM)	< 0.006	0.78 (≈ 1.85 µM)	–
CSc1c2sc(C3=C(C(=O)[O-])N4C(=O)[C@H]([C@@H](C)O)[C@H]4[C@H]3C)cn2c[n+]1Cc1cccc(CSC(=N)N)c1	250	0.78 (≈ 1.4 µM)	< 0.006	0.39 (≈ 0.699 µM)	–
CSc1c2sc(C3=C(C(=O)[O-])N4C(=O)[C@H]([C@@H](C)O)[C@H]4[C@H]3C)cn2c[n+]1[C@@H]1CN[C@H](C(=O)N(C)C)C1	–	6.25 (≈ 12 µM)	0.025 (≈ 0.0481 µM)	3.13 (≈ 6.02 µM)	–
CO[C@H](CN)C[n+]1cn2cc(C3=C(C(=O)[O-])N4C(=O)[C@H]([C@@H](C)O)[C@H]4[C@H]3C)sc2c1SC	> 500	3.13 (≈ 6.71 µM)	< 0.006	0.78 (≈ 1.67 µM)	–
CSc1c2sc(C3=C(C(=O)[O-])N4C(=O)[C@H]([C@@H](C)O)[C@H]4[C@H]3C)cn2c[n+]1C[C@@H](CN)OCF	500	3.13 (≈ 6.46 µM)	< 0.006	0.78 (≈ 1.61 µM)	–
CSc1c2sc(C3=C(C(=O)[O-])N4C(=O)[C@H]([C@@H](C)O)[C@H]4[C@H]3C)cn2c[n+]1CCSCCN	–	1.56 (≈ 3.23 µM)	< 0.006	0.39 (≈ 0.808 µM)	–
CSc1c2sc(C3=C(C(=O)[O-])N4C(=O)[C@H]([C@@H](C)O)[C@H]4[C@H]3C)cn2c[n+]1CCS(=O)(=O)CCN	> 500	3.13 (≈ 6.08 µM)	< 0.006	0.78 (≈ 1.52 µM)	–
CSc1c2sc(C3=C(C(=O)[O-])N4C(=O)[C@H]([C@@H](C)O)[C@H]4[C@H]3C)cn2c[n+]1CCCCCCN	250	1.56 (≈ 3.26 µM)	< 0.006	0.78 (≈ 1.63 µM)	–
CSc1c2sc(C3=C(C(=O)[O-])N4C(=O)[C@H]([C@@H](C)O)[C@H]4[C@H]3C)cn2c[n+]1C1CCNCC1	–	3.13 (≈ 6.77 µM)	0.013 (≈ 0.0281 µM)	1.56 (≈ 3.37 µM)	–
CSc1c2sc(C3=C(C(=O)[O-])N4C(=O)[C@H]([C@@H](C)O)[C@H]4[C@H]3C)cn2c[n+]1C[C@@H]1CCCN1	–	3.13 (≈ 6.77 µM)	< 0.006	0.78 (≈ 1.69 µM)	–
CSc1c2sc(C3=C(C(=O)[O-])N4C(=O)[C@H]([C@@H](C)O)[C@H]4[C@H]3C)cn2c[n+]1CCCNC=N	–	3.13 (≈ 6.75 µM)	< 0.006	0.78 (≈ 1.68 µM)	–
CSc1c2sc(C3=C(C(=O)[O-])N4C(=O)[C@H]([C@@H](C)O)[C@H]4[C@H]3C)cn2c[n+]1CCCCN	–	1.56 (≈ 3.46 µM)	< 0.006	0.78 (≈ 1.73 µM)	–
CSc1c2sc(C3=C(C(=O)[O-])N4C(=O)[C@H]([C@@H](C)O)[C@H]4[C@H]3C)cn2c[n+]1CCCN	250	1.56 (≈ 3.57 µM)	< 0.006	0.78 (≈ 1.79 µM)	–
CSc1c2sc(C3=C(C(=O)[O-])N4C(=O)[C@H]([C@@H](C)O)[C@H]4[C@H]3C)cn2c[n+]1CC(N)=O	–	3.13 (≈ 7.17 µM)	< 0.006	1.56 (≈ 3.57 µM)	–
CSc1c2sc(C3=C(C(=O)[O-])N4C(=O)[C@H]([C@@H](C)O)[C@H]4[C@H]3C)cn2c[n+]1[C@@H]1CN[C@H](C(=O)O)C1	–	6.25 (≈ 12.7 µM)	0.025 (≈ 0.0508 µM)	3.13 (≈ 6.35 µM)	–
CSc1c2sc(C3=C(C(=O)[O-])N4C(=O)[C@H]([C@@H](C)O)[C@H]4[C@H]3C)cn2c[n+]1[C@H]1CCNC1	500	1.56 (≈ 3.48 µM)	< 0.006	0.78 (≈ 1.74 µM)	–
CSc1c2sc(C3=C(C(=O)[O-])N4C(=O)[C@H]([C@@H](C)O)[C@H]4[C@H]3C)cn2c[n+]1CCCNC(C)=N	–	3.13 (≈ 6.55 µM)	< 0.006	0.78 (≈ 1.63 µM)	–
CSc1c2sc(C3=C(C(=O)[O-])N4C(=O)[C@H]([C@@H](C)O)[C@H]4[C@H]3C)cn2c[n+]1C[C@H](O)CN	> 500	1.56 (≈ 3.45 µM)	< 0.006	0.78 (≈ 1.72 µM)	MIC (Staphylococcus aureus [4]): 0.05 µg/mL (≈ 0.11 µM); MIC50 (Staphylococcus aureus [5]): 0.78 µg/mL (≈ 1.72 µM); MIC90 (Staphylococcus aureus [5]): 1.56 µg/mL (≈ 3.45 µM); MIC (Haemophilus influenzae): 0.78 µg/mL; dose excreted [6]: 41.9%; half-life [7]: 13.4 min; MIC (Moraxella catarrhalis): 0.05 µg/mL (≈ 0.11 µM); clearance [8]: 26.8 mL/min/kg; MIC (Klebsiella pneumoniae): 0.1 µg/mL (≈ 0.221 µM); ED50 (Staphylococcus aureus [9]): 0.039 mg; Activity (Serum [10]): 16%; MIC (Staphylococcus aureus [11]): 1.56 µg/mL (≈ 3.45 µM); Activity (Serum [12]): 12.2%; Vd [13]: 0.34 L/kg; MIC (Escherichia coli): 0.05 µg/mL (≈ 0.11 µM); AUC(0-inf) [14]: 12600 ng·h/mL; MIC (Pseudomonas aeruginosa): 6.25 µg/mL (≈ 13.8 µM)
CSc1c2sc(C3=C(C(=O)[O-])N4C(=O)[C@H]([C@@H](C)O)[C@H]4[C@H]3C)cn2c[n+]1[C@H]1CCN(C(C)=N)C1	–	3.13 (≈ 6.39 µM)	< 0.006	1.56 (≈ 3.19 µM)	–
CSc1c2sc(C3=C(C(=O)[O-])N4C(=O)[C@H]([C@@H](C)O)[C@H]4[C@H]3C)cn2c[n+]1CCCSC(=N)N	250	1.56 (≈ 3.15 µM)	< 0.006	0.39 (≈ 0.787 µM)	–
CSc1c2sc(C3=C(C(=O)[O-])N4C(=O)[C@H]([C@@H](C)O)[C@H]4[C@H]3C)cn2c[n+]1[C@@H]1CN[C@H](CO)C1	–	3.13 (≈ 6.54 µM)	< 0.006	0.78 (≈ 1.63 µM)	–
COC(=O)[C@@H]1C[C@H]([n+]2cn3cc(C4=C(C(=O)[O-])N5C(=O)[C@H]([C@@H](C)O)[C@H]5[C@H]4C)sc3c2SC)CN1	–	6.25 (≈ 12.3 µM)	0.013 (≈ 0.0257 µM)	1.56 (≈ 3.08 µM)	–
CSc1c2sc(C3=C(C(=O)[O-])N4C(=O)[C@H]([C@@H](C)O)[C@H]4[C@H]3C)cn2c[n+]1C[C@H](C)CN	500	1.56 (≈ 3.46 µM)	< 0.006	0.78 (≈ 1.73 µM)	–
C[C@@H](O)[C@H]1C(=O)N2C(C(=O)O)=C(SCCNC=N)C[C@H]12 [IMIPENEM ANHYDROUS]	–	100 (≈ 334 µM)	0.013 (≈ 0.0434 µM)	25 (≈ 83.5 µM)	MIC (Staphylococcus aureus [4]): 0.39 µg/mL (≈ 1.3 µM); MIC (Haemophilus influenzae): 3.13 µg/mL; MIC (Moraxella catarrhalis): 0.05 µg/mL (≈ 0.167 µM); MIC (Klebsiella pneumoniae): 0.39 µg/mL (≈ 1.3 µM); MIC (Escherichia coli): 0.1 µg/mL (≈ 0.334 µM); MIC (Pseudomonas aeruginosa): 1.56 µg/mL (≈ 5.21 µM)
CN[C@H](CC(C)C)C(=O)N[C@H]1C(=O)N[C@@H](CC(N)=O)C(=O)N[C@H]2C(=O)N[C@H]3C(=O)N[C@H](C(=O)N[C@H](C(=O)O)c4cc(O)cc(O)c4-c4cc3ccc4O)[C@H](O)c3ccc(c(Cl)c3)Oc3cc2cc(c3O[C@@H]2O[C@H](CO)[C@@H](O)[C@H](O)[C@H]2O[C@H]2C[C@](C)(N)[C@H](O)[C@H](C)O2)Oc2ccc(cc2Cl)[C@H]1O [VANCOMYCIN]	–	1.56 (≈ 1.08 µM)	0.78 (≈ 0.538 µM)	1.56 (≈ 1.08 µM)	MIC50 (Staphylococcus aureus [5]): 1.56 µg/mL (≈ 1.08 µM); MIC90 (Staphylococcus aureus [5]): 1.56 µg/mL (≈ 1.08 µM); ED50 (Staphylococcus aureus [9]): 0.18 mg; MIC (Staphylococcus aureus [11]): 0.78 µg/mL (≈ 0.538 µM)
